{"source": "patent US20110207751A1", "about": "“HETEROCYCLIC COMPOUNDS AND USES AS ANTICANCER AGENTS” (priority 2010, published 2011)", "key": {"[1]": {"system": "KB200 cells over-expressing multiple drug resistant (MDR) gene", "experiment": "Inhibition of cell proliferation, xCelligence cell index", "format": "cell-based", "settings": "Homo sapiens", "quoted_text": "The biological activity of compounds disclosed herein was monitored and profiled using the Real-Time Cell Electronic Sensing (RT-CES®) system from ACEA Biosciences, Inc. The RT-CES system utilizes cell-substrate impedance technology to monitor cellular behavior inside tissue culture wells in a microtiter plate format. The technology features in the integration of molecular and cell biology with microelectronics and is based on the electronic detection of biological assay process.\nFor measurement of cell-substrate or cell-electrode impedance using RT-CES technology, microelectrodes having appropriate geometries are fabricated onto the bottom surfaces of microtiter plate or similar device, facing into the wells. Cells are introduced into the wells of the devices, and make contact to and attach to the electrode surfaces. The presence, absence or change of properties of cells affects the electronic and ionic passage on the electrode sensor surfaces. Measuring the impedance between or among electrodes provides important information about biological status of cells present on the sensors. When there are changes to the biological status of the cells analogue electronic readout signals are measured automatically and in real time, and are converted to digital signals for processing and for analysis. In a RT-CES system, a cell index (arbitrary representation of change in impedance) is automatically derived and provided based on measured electrode impedance values. The cell index obtained for a given well reflects: 1) how many cells are attached to the electrode surfaces in this well; 2) how well cells are attached to the electrode surfaces in this well. Thus, the more the cells of same type in similar physiological conditions attach the electrode surfaces, the larger the cell index. And, the better the cells attach to the electrode surfaces (e.g., the cells spread-out more to have larger contact areas, or the cells attach tighter to electrode surfaces), the larger the cell index.\nTo quantify cell status based on the measured cell-electrode impedance, a parameter termed Cell Index is derived. Cell Index is a quantitative measure of the status of the cells in an electrode-containing well. Under the same physiological conditions, more cells attached on to the electrodes leads to larger cell-electrode resistance value, leading to a larger value for Cell Index. Furthermore, for the same number of cells present in the well, a change in the cell status such as morphology will lead to a change in the Cell Index. […]\nThe efficacy of these compounds was also tested against KB200 cell over-expressing multiple drug resistant (MDR) gene. […] The cell status was monitored prior to and after the compound addition using xCelligence system (Roche). […]"}, "[2]": {"system": "H460 human non-small cell lung cancer xenograft", "experiment": "In vivo antitumor efficacy, H460 xenograft", "design": "species or system BALB/c immunodeficient nude mice", "settings": "for Tumor inhibition rate %: by tumor weight", "description": "(§1) To evaluate the in vivo anticancer efficacy of COMPOUND O, H460 human non-small cell lung Cancer xenograft models in immunodeficient nude mice was used. The cell line and mice were maintained in the Pharmacology Lab of ACEA Bio (Hangzhou) CO., Ltd. The BALB/c immunodeficient nude mice were purchased from Shanghai SLAC Laboratory Animal, certification number: SCXKA (Shanghai) 2007-0005. The mouse weight was between 19±2 g. Only female mice were used in this study. The numbers of animals tested were as follows: 7 for each dose group, 7 for positive control group and 7 for negative control group.\n(§2) Test Control. For negative control, each mouse was administered orally with the solvent only having the same volume and same concentration as those used in COMPOUND O test, 120 mg/kg once every other day (qod) for 25 days. For positive control, an oral anticancer compound, Etoposide was administered orally at 30 mg/kg qod for 25 days.\n(§3) Preparation an Administration of Test Compounds. COMPOUND O was dissolved in 25% phospholipid (S75) and 75% polyvinylpyrrolidone (PL-PVP) then further diluted to 8 mg/ml in 0.9% NaCl aqueous solution. Each mouse was administered orally with the compound solution. Different dosages of COMPOUND O (120 mg/kg qod and 160 mg/kg q3d) were used in the study.\nPreparation of tumor cells for transplantation and determination of compound efficacy. To prepare the cancer cells for H460 human non-small cell lung cancer xenograft model, the log phase growing cell in the flask were trypsinized and cells were re-suspended in PBS (pH 7.2) at 1.5×10^7 cells/ml. The cell suspension (3×10^6 cells) was subcutaneously injected into the auxiliary region (right-side) of each mouse. After the inoculated cancer cells grew to a tumor of certain size (150 mm^3) in the nude mice, the mice were randomized into different dosing groups and subjected to compound treatment. Between 3-4 weeks after the first dosing, mice were sacrificed and the transplanted tumors were removed from experimental mice. Each removed solid tumor was weighed; the tumor inhibition rate in each dosage group was calculated according to equation (1) in Example 1.\n(§4) All used materials including animal food, animal cage, supporting materials and apparatus contacted by animals, were high-pressure sterilized. Nude mice were maintained in laminar flow shelves under SPF condition. After tumor transplantation, mouse weight and tumor size in each compound dosage group were dynamically monitored and plotted. The tumor size was determined by measuring the major axis (a) and minor axis (b) of the tumor, and tumor volume was calculated according to the formula (2) in Example 1."}, "[3]": {"experiment": "Body weight and animal number of carrier mice, A549 xenograft test", "format": "in vivo, BALB/c immunodeficient nude mice", "description": "as §1, with “O, A549” for “O, H460”, “lung cancer” for “lung Cancer”, “between 21±1” for “between 19±2”, “as follow: 7-8” for “as follows: 7”, “group, 6” for “group, 7”\nas §2\nas §3, with “q2*2 (dosing for 2 consecutive days then off for 2 consecutive days)” for “q3d)”\nas §4"}, "[4]": {"settings": "72 hr post compound treatment, read-out: calculated IC50"}}, "note": "Where a name gives a salt, the structure may show the parent alone. Read-outs that look alike come from different tables or passages of the source."}
{"smiles": "CCc1ccc(Nc2nc(-c3c(C)nc4sccn34)cs2)cc1", "note": "[COMPOUND O, 2-(4-ethylphenyl)amino-4-(6-methylimidazo[2,1-b]thiazol-5-yl)-thiazole monohydrobromide]", "values": [{"measurement": "IC50", "setting": "[1]; [4]", "result": 9.84, "unit": "nM"}, {"measurement": "TV inhibition rate % T/C", "setting": "[2]; 120 mg/kg ig × 11 qod", "result": 47.0, "unit": "%"}, {"measurement": "Tumor volume (mm^3) End", "setting": "[2]; 120 mg/kg ig × 11 qod", "result": "745.28 ± 245.55", "unit": "mm^3"}, {"measurement": "Tumor volume (mm^3) Start", "setting": "[2]; 120 mg/kg ig × 11 qod", "result": "162.09 ± 53.94", "unit": "mm^3"}, {"measurement": "Tumor weight (g) x ± SD", "setting": "[2]; 120 mg/kg ig × 11 qod", "result": "0.81 ± 0.29", "unit": "g"}, {"measurement": "Tumor inhibition rate %", "setting": "[2]; 120 mg/kg ig × 11 qod", "result": 47.1, "unit": "%"}, {"measurement": "TV inhibition rate % T/C", "setting": "[2]; 160 mg/kg ig × 9 q3d", "result": 69.9, "unit": "%"}, {"measurement": "Tumor volume (mm^3) End", "setting": "[2]; 160 mg/kg ig × 9 q3d", "result": "524.67 ± 141.77", "unit": "mm^3"}, {"measurement": "Tumor volume (mm^3) Start", "setting": "[2]; 160 mg/kg ig × 9 q3d", "result": "171.44 ± 53.63", "unit": "mm^3"}, {"measurement": "Tumor weight (g) x ± SD", "setting": "[2]; 160 mg/kg ig × 9 q3d", "result": "0.46 ± 0.13", "unit": "g"}, {"measurement": "Tumor inhibition rate %", "setting": "[2]; 160 mg/kg ig × 9 q3d", "result": 31.3, "unit": "%"}, {"measurement": "Animal weight (g) Beginning", "setting": "[3]; 120 mg/kg ig × 14 qod", "result": 20.77, "unit": "g"}, {"measurement": "Animal weight (g) end", "setting": "[3]; 120 mg/kg ig × 14 qod", "result": 16.94, "unit": "g"}, {"measurement": "Body weight of mice (g) 1 day", "setting": "[3]; 120 mg/kg ig × 14 qod", "result": "20.77 ± 0.68", "unit": "g"}, {"measurement": "Body weight of mice (g) 4 day", "setting": "[3]; 120 mg/kg ig × 14 qod", "result": "20.27 ± 0.83", "unit": "g"}, {"measurement": "Body weight of mice (g) 8 day", "setting": "[3]; 120 mg/kg ig × 14 qod", "result": "19.57 ± 1.09", "unit": "g"}, {"measurement": "Body weight of mice (g) 11 day", "setting": "[3]; 120 mg/kg ig × 14 qod", "result": "18.20 ± 0.59", "unit": "g"}, {"measurement": "Body weight of mice (g) 15 day", "setting": "[3]; 120 mg/kg ig × 14 qod", "result": "17.90 ± 0.61", "unit": "g"}, {"measurement": "Body weight of mice (g) 18 day", "setting": "[3]; 120 mg/kg ig × 14 qod", "result": "17.90 ± 1.09", "unit": "g"}, {"measurement": "Body weight of mice (g) 22 day", "setting": "[3]; 120 mg/kg ig × 14 qod", "result": "17.21 ± 1.20", "unit": "g"}, {"measurement": "Body weight of mice (g) 25 day", "setting": "[3]; 120 mg/kg ig × 14 qod", "result": "17.00 ± 1.29", "unit": "g"}, {"measurement": "Animal No. end", "setting": "[3]; 120 mg/kg ig × 14 qod, 7 at beginning", "result": "7/7"}, {"measurement": "Animal weight (g) Beginning", "setting": "[3]; 160 mg/kg ig × 11 q2*2", "result": 21.69, "unit": "g"}, {"measurement": "Animal weight (g) end", "setting": "[3]; 160 mg/kg ig × 11 q2*2", "result": 17.97, "unit": "g"}, {"measurement": "Body weight of mice (g) 1 day", "setting": "[3]; 160 mg/kg ig × 11 q2*2", "result": "21.69 ± 0.66", "unit": "g"}, {"measurement": "Body weight of mice (g) 4 day", "setting": "[3]; 160 mg/kg ig × 11 q2*2", "result": "21.20 ± 0.79", "unit": "g"}, {"measurement": "Body weight of mice (g) 8 day", "setting": "[3]; 160 mg/kg ig × 11 q2*2", "result": "19.00 ± 1.48", "unit": "g"}, {"measurement": "Body weight of mice (g) 11 day", "setting": "[3]; 160 mg/kg ig × 11 q2*2", "result": "17.78 ± 2.11", "unit": "g"}, {"measurement": "Body weight of mice (g) 15 day", "setting": "[3]; 160 mg/kg ig × 11 q2*2", "result": "17.43 ± 1.86", "unit": "g"}, {"measurement": "Body weight of mice (g) 18 day", "setting": "[3]; 160 mg/kg ig × 11 q2*2", "result": "18.43 ± 0.90", "unit": "g"}, {"measurement": "Body weight of mice (g) 22 day", "setting": "[3]; 160 mg/kg ig × 11 q2*2", "result": "18.70 ± 1.04", "unit": "g"}, {"measurement": "Body weight of mice (g) 25 day", "setting": "[3]; 160 mg/kg ig × 11 q2*2", "result": "17.97 ± 0.93", "unit": "g"}, {"measurement": "Animal No. end", "setting": "[3]; 160 mg/kg ig × 11 q2*2, 8 at beginning", "result": "8/3"}]}
{"smiles": "COc1cc([C@@H]2c3cc4c(cc3[C@@H](O[C@@H]3O[C@@H]5CO[C@@H](C)O[C@H]5[C@H](O)[C@H]3O)[C@H]3COC(=O)[C@H]23)OCO4)cc(OC)c1O", "note": "[Etoposide, reference compound]", "values": [{"measurement": "TV inhibition rate % T/C", "setting": "[2]; 30 mg/kg ig × 13 qod", "result": 50.4, "unit": "%"}, {"measurement": "Tumor volume (mm^3) End", "setting": "[2]; 30 mg/kg ig × 13 qod", "result": "775.43 ± 302.62", "unit": "mm^3"}, {"measurement": "Tumor volume (mm^3) Start", "setting": "[2]; 30 mg/kg ig × 13 qod", "result": "163.79 ± 57.22", "unit": "mm^3"}, {"measurement": "Tumor weight (g) x ± SD", "setting": "[2]; 30 mg/kg ig × 13 qod", "result": "0.76 ± 0.29", "unit": "g"}, {"measurement": "Tumor inhibition rate %", "setting": "[2]; 30 mg/kg ig × 13 qod", "result": 48.4, "unit": "%"}, {"measurement": "Animal weight (g) Beginning", "setting": "[3]; 30 mg/kg ig × 13 qod", "result": 21.30, "unit": "g"}, {"measurement": "Animal weight (g) end", "setting": "[3]; 30 mg/kg ig × 13 qod", "result": 18.18, "unit": "g"}, {"measurement": "Body weight of mice (g) 1 day", "setting": "[3]; 30 mg/kg ig × 13 qod", "result": "21.30 ± 0.70", "unit": "g"}, {"measurement": "Body weight of mice (g) 4 day", "setting": "[3]; 30 mg/kg ig × 13 qod", "result": "19.38 ± 2.22", "unit": "g"}, {"measurement": "Body weight of mice (g) 8 day", "setting": "[3]; 30 mg/kg ig × 13 qod", "result": "20.53 ± 1.26", "unit": "g"}, {"measurement": "Body weight of mice (g) 11 day", "setting": "[3]; 30 mg/kg ig × 13 qod", "result": "19.62 ± 1.15", "unit": "g"}, {"measurement": "Body weight of mice (g) 15 day", "setting": "[3]; 30 mg/kg ig × 13 qod", "result": "19.63 ± 1.63", "unit": "g"}, {"measurement": "Body weight of mice (g) 18 day", "setting": "[3]; 30 mg/kg ig × 13 qod", "result": "19.48 ± 2.01", "unit": "g"}, {"measurement": "Body weight of mice (g) 22 day", "setting": "[3]; 30 mg/kg ig × 13 qod", "result": "19.10 ± 2.57", "unit": "g"}, {"measurement": "Body weight of mice (g) 25 day", "setting": "[3]; 30 mg/kg ig × 13 qod", "result": "18.18 ± 1.86", "unit": "g"}, {"measurement": "Animal No. end", "setting": "[3]; 30 mg/kg ig × 13 qod, 6 at beginning", "result": "6/6"}]}
{"smiles": "CC(=O)O[C@H]1C(=O)[C@@]2(C)[C@H]([C@H](OC(=O)c3ccccc3)[C@]3(O)C[C@H](OC(=O)[C@H](O)[C@@H](NC(=O)c4ccccc4)c4ccccc4)C(C)=C1C3(C)C)[C@]1(OC(C)=O)CO[C@@H]1C[C@@H]2O", "note": "[paclitaxel]", "values": [{"measurement": "IC50", "setting": "[1]; [4]", "result": "> 1000", "unit": "nM"}, {"measurement": "IC50", "setting": "[1]; read-out: IC50", "result": "> 1000", "unit": "nM"}]}
